# Tests used:
# Experiment in all cases: relative viability (nuclei count vs DMSO), 5 days (fraction); higher = more cells survive
# ABC-1 = test system: ABC-1
# Procedure, shortened: (§1)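 Relative viability is defined as nuclei in treated wells over nuclei in vehicle wells. Duplicate plates were run and medians reported. Lung cancer cell lines in 1536-well plates were dosed by pin tool one day after seeding, with one drug or with a fixed anchor-drug dose plus five library-drug doses (not always all listed) in √10 steps, and nuclei were counted after 5 days.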
# COR-L23 = test system: COR-L23
# Procedure, shortened: as §1
# ChaGo-K-1 = test system: ChaGo-K-1
# Procedure, shortened: as §1
# NCI-H1437 = test system: NCI-H1437
# Procedure, shortened: as §1
# NCI-H1623 = test system: NCI-H1623
# Procedure, shortened: as §1
# NCI-H1651 = test system: NCI-H1651
# Procedure, shortened: as §1
# SK-MES-1 = test system: SK-MES-1
# Procedure, shortened: as §1
# SW 1573 = test system: SW 1573
# Procedure, shortened: as §1
# A549 = test system: A549
# Procedure, shortened: as §1
# Calu-6 = test system: Calu-6
# Procedure, shortened: as §1
# EBC-1 = test system: EBC-1
# Procedure, shortened: as §1
# IA-LM = test system: IA-LM
# Procedure, shortened: as §1
# NCI-H1299 = test system: NCI-H1299
# Procedure, shortened: as §1
# NCI-H1648 = test system: NCI-H1648
# Procedure, shortened: as §1
# NCI-H1703 = test system: NCI-H1703
# Procedure, shortened: as §1
smiles,measurement,setting,value
CCN(CC)CCCCNc1ncc2cc(-c3cc(OC)cc(OC)c3)c(NC(=O)NC(C)(C)C)nc2n1 + CCNC(=O)c1noc(-c2cc(C(C)C)c(O)cc2O)c1-c1ccc(CN2CCOCC2)cc1 [Luminespib] (partner 0.01 µM),relative viability,ABC-1; first compound 0.01 µM,0.731
same,relative viability,ABC-1; first compound 0.03162 µM,0.405
same,relative viability,ABC-1; first compound 0.1 µM,0.832
same,relative viability,ABC-1; first compound 0.3162 µM,0.416
same,relative viability,ABC-1; first compound 1 µM,0.693
same,relative viability,COR-L23; first compound 0.01 µM,0.799
same,relative viability,COR-L23; first compound 0.03162 µM,0.707
same,relative viability,COR-L23; first compound 0.1 µM,0.955
same,relative viability,COR-L23; first compound 0.3162 µM,1.03
same,relative viability,COR-L23; first compound 1 µM,0.639
same,relative viability,ChaGo-K-1; first compound 0.01 µM,0.618
same,relative viability,ChaGo-K-1; first compound 0.03162 µM,0.638
same,relative viability,ChaGo-K-1; first compound 0.1 µM,0.727
same,relative viability,ChaGo-K-1; first compound 0.3162 µM,0.679
same,relative viability,ChaGo-K-1; first compound 1 µM,0.811
same,relative viability,NCI-H1437; first compound 0.01 µM,1.18
same,relative viability,NCI-H1437; first compound 0.03162 µM,1.1
same,relative viability,NCI-H1437; first compound 0.1 µM,1.26
same,relative viability,NCI-H1437; first compound 0.3162 µM,1.1
same,relative viability,NCI-H1437; first compound 1 µM,1.05
same,relative viability,NCI-H1623; first compound 0.01 µM,0.605
same,relative viability,NCI-H1623; first compound 0.03162 µM,0.54
same,relative viability,NCI-H1623; first compound 0.1 µM,0.443
same,relative viability,NCI-H1623; first compound 0.3162 µM,0.607
same,relative viability,NCI-H1623; first compound 1 µM,0.722
same,relative viability,NCI-H1651; first compound 0.01 µM,0.886
same,relative viability,NCI-H1651; first compound 0.03162 µM,0.875
same,relative viability,NCI-H1651; first compound 0.1 µM,0.779
same,relative viability,NCI-H1651; first compound 0.3162 µM,1.33
same,relative viability,NCI-H1651; first compound 1 µM,0.781
same,relative viability,SK-MES-1; first compound 0.01 µM,0.97
same,relative viability,SK-MES-1; first compound 0.03162 µM,0.762
same,relative viability,SK-MES-1; first compound 0.1 µM,0.832
same,relative viability,SK-MES-1; first compound 0.3162 µM,0.798
same,relative viability,SK-MES-1; first compound 1 µM,0.576
same,relative viability,SW 1573; first compound 0.01 µM,0.238
same,relative viability,SW 1573; first compound 0.03162 µM,0.297
same,relative viability,SW 1573; first compound 0.1 µM,0.239
same,relative viability,SW 1573; first compound 0.3162 µM,0.177
same,relative viability,SW 1573; first compound 1 µM,0.172
CCN(CC)CCCCNc1ncc2cc(-c3cc(OC)cc(OC)c3)c(NC(=O)NC(C)(C)C)nc2n1 + O=C(c1cc(Cc2n[nH]c(=O)c3ccccc23)ccc1F)N1CCN(C(=O)C2CC2)CC1 [Olaparib] (partner 8 µM),relative viability,A549; first compound 0.01 µM,0.273
same,relative viability,A549; first compound 0.03162 µM,0.367
same,relative viability,A549; first compound 0.1 µM,0.318
same,relative viability,A549; first compound 0.3162 µM,0.32
same,relative viability,A549; first compound 1 µM,0.349
same,relative viability,ABC-1; first compound 0.03162 µM,0.754
same,relative viability,ABC-1; first compound 0.1 µM,1.04
same,relative viability,ABC-1; first compound 0.3162 µM,0.93
same,relative viability,ABC-1; first compound 1 µM,1.01
same,relative viability,COR-L23; first compound 0.01 µM,0.365
same,relative viability,COR-L23; first compound 0.03162 µM,0.378
same,relative viability,COR-L23; first compound 0.1 µM,0.368
same,relative viability,COR-L23; first compound 0.3162 µM,0.403
same,relative viability,COR-L23; first compound 1 µM,0.344
same,relative viability,Calu-6; first compound 0.03162 µM,0.583
same,relative viability,Calu-6; first compound 0.1 µM,0.627
same,relative viability,Calu-6; first compound 0.3162 µM,0.694
same,relative viability,Calu-6; first compound 1 µM,0.556
same,relative viability,ChaGo-K-1; first compound 0.01 µM,0.444
same,relative viability,ChaGo-K-1; first compound 0.03162 µM,0.416
same,relative viability,ChaGo-K-1; first compound 0.1 µM,0.442
same,relative viability,ChaGo-K-1; first compound 0.3162 µM,0.46
same,relative viability,ChaGo-K-1; first compound 1 µM,0.388
same,relative viability,EBC-1; first compound 0.01 µM,0.738
same,relative viability,EBC-1; first compound 0.03162 µM,0.684
same,relative viability,EBC-1; first compound 0.1 µM,0.779
same,relative viability,EBC-1; first compound 0.3162 µM,0.824
same,relative viability,EBC-1; first compound 1 µM,0.705
same,relative viability,IA-LM; first compound 0.01 µM,0.821
same,relative viability,IA-LM; first compound 0.03162 µM,0.88
same,relative viability,IA-LM; first compound 0.1 µM,0.946
same,relative viability,IA-LM; first compound 0.3162 µM,0.762
same,relative viability,IA-LM; first compound 1 µM,0.936
same,relative viability,NCI-H1299; first compound 0.01 µM,1.03
same,relative viability,NCI-H1299; first compound 0.03162 µM,0.991
same,relative viability,NCI-H1299; first compound 0.1 µM,1.01
same,relative viability,NCI-H1299; first compound 0.3162 µM,1.04
same,relative viability,NCI-H1299; first compound 1 µM,0.998
same,relative viability,NCI-H1437; first compound 0.01 µM,0.635
same,relative viability,NCI-H1437; first compound 0.03162 µM,0.666
same,relative viability,NCI-H1437; first compound 0.1 µM,0.681
same,relative viability,NCI-H1437; first compound 0.3162 µM,0.642
same,relative viability,NCI-H1437; first compound 1 µM,0.614
same,relative viability,NCI-H1648; first compound 0.01 µM,0.991
same,relative viability,NCI-H1648; first compound 0.03162 µM,0.767
same,relative viability,NCI-H1648; first compound 0.1 µM,0.781
same,relative viability,NCI-H1648; first compound 0.3162 µM,0.703
same,relative viability,NCI-H1648; first compound 1 µM,0.648
same,relative viability,NCI-H1651; first compound 0.01 µM,0.193
same,relative viability,NCI-H1651; first compound 0.03162 µM,0.192
same,relative viability,NCI-H1651; first compound 0.1 µM,0.175
same,relative viability,NCI-H1651; first compound 0.3162 µM,0.203
same,relative viability,NCI-H1651; first compound 1 µM,0.183
same,relative viability,NCI-H1703; first compound 0.01 µM,0.313
same,relative viability,NCI-H1703; first compound 0.03162 µM,0.421
same,relative viability,NCI-H1703; first compound 0.1 µM,0.52
same,relative viability,NCI-H1703; first compound 0.3162 µM,0.383
same,relative viability,NCI-H1703; first compound 1 µM,0.388
same,relative viability,SK-MES-1; first compound 0.01 µM,0.913
same,relative viability,SK-MES-1; first compound 0.03162 µM,0.752
same,relative viability,SK-MES-1; first compound 0.1 µM,0.863
same,relative viability,SK-MES-1; first compound 0.3162 µM,0.735
same,relative viability,SK-MES-1; first compound 1 µM,0.727
same,relative viability,SW 1573; first compound 0.01 µM,0.513
same,relative viability,SW 1573; first compound 0.03162 µM,0.551
same,relative viability,SW 1573; first compound 0.1 µM,0.613
same,relative viability,SW 1573; first compound 0.3162 µM,0.522
same,relative viability,SW 1573; first compound 1 µM,0.421
